Measurements as given in patent US12390485B2, “Compounds and methods for suppressing an immune response to substances containing polyethylene glycol” (aAb Therapeutics, LLC, priority 2020, dated 2025).

How the values were obtained:
[1] = tested on: anti-PEG antibody response; experiment: Prophylaxis model: anti-PEG antibody response in PEG-naïve mice immunized with PEG-KLH (serum ELISA); type: in vivo, BALB/c mice
Method: Pre-immunization blood samples were collected by retroorbital bleeding on Day −5. All other blood draws were collected on the days indicated. For testing, pools of serum from each group (n=5) were generated by mixing equal volumes of serum from each mouse in the group. Treatments were as outlined below.
(§1) ELISAs were carried out as follows. Plates were coated overnight at 4° C. with 0.5 mcg antigen in 100 uL sodium carbonate coating buffer, then washed twice with PBS and blocked with 300 uL Blocking Buffer (nonfat dry milk-PBS (5% w/v) or 1× fish gel (Rockland immunochemicals)) at room temperature for 1 hr. […] After washing 3× for 5 minutes each with PBS, 100 uL TMBE was added to each well and a kinetic read taken for 5 minutes. Plates were allowed to continue the color development reaction for a total of 30 minutes at which time 100 uL stop solution was added and plates read. […]
In the present experiment, we first studied the anti-PEG IgM antibody response. […] Anti-PEG IgM antibodies were then measured against PEG-BSA by ELISA from bleeds collected on Day −5 and Day 9 (serum dilution 1:500)(FIG. 2).
In the present experiment, detection of IgG antibodies on Day 9 is not generally expected as this antibody subclass generally takes two weeks or more to emerge after immunization. […] The anti-PEG IgG response was assessed by ELISA as described above, using a serum dilution of 1:500.

[2] = tested on: anti-PEG antibody response; experiment: Treatment model: mice with existing anti-PEG antibody response from PEG-KLH (serum ELISA); type: in vivo, BALB/c mice; details: PEG alone before and after PEG-KLH boosting (P/P), Day 21 and Day 28; bleed Day 30; serum 1:500; FIG. 6
Description: Male BALB/c mice (aged 6-8 weeks) were immunized intraperitoneally (i.p.) with PEG conjugated to KLH (PEG-KLH) using Complete Freund's adjuvant on Day 1 (50 mcg) and boosted with the same conjugate using Incomplete Freund's adjuvant on Day 18 (25 mcg). Pre-immunization blood samples were collected by retroorbital bleeding on Day −5. All other blood draws were collected on the days indicated. For testing, pools of serum from each group (n=5) were generated by mixing equal volumes of serum from each mouse in the group. Treatments were as outlined below.
as §1
In this treatment scenario, to generate anti-PEG antibodies prior to treatment, mice were first immunized with PEG-KLH conjugate on Day 0 and boosted on Day 22 (FIG. 5). […] Anti-PEG IgG antibodies were measured on Day 30 by ELISA as indicated above (serum diluted 1:500). […]

In the case of MeO-23PEG-Ethanolamine, the “anti-PEG IgG antibodies (ELISA)” value ([1]; treatment Day 0 and Day 7, additional PEG-KLH immunization Day 22, bleed Day 26, serum 1:500, FIG. 4) is reported as “readily detected”, the “anti-PEG IgM antibodies (ELISA against PEG-BSA)” value ([1]; treatment i.p. Day 0 and Day 7, PEG-KLH Day 1, bleed Day 9, pooled serum 1:500, FIG. 3) is reported as “readily detected” and the “anti-PEG IgG antibodies” value [2] is reported as “had no effect on anti-PEG IgG antibodies”.
